Values after ≈ are worked out from the molar mass of the structure shown.
Columns and labels:
Phytophthora infestans = assay: whole plant or invertebrate; assay type: in vivo; conditions: Phytophthora infestans, in Solanum lycopersicum, 96 h, read-out: % control TLB
A.n = assay: Minimum Inhibitory Concentration Test, alternate (Table 4), A.n; assay type: cell-based, Aspergillus niger; conditions: Aspergillus niger, TSB, 72 hours
Experimental: (§1) A 125 μl aliquot of 10,000 ppm test compound in acetone was added to 4.88 ml of TSB to provide a 250 ppm solution. From this solution, 100 μL was transferred to the first row of two microtiter plate columns. Both replicates and five additional compounds were all serially diluted 1:1 to a final concentration of 0.8 ppm in TSB.
(§2) Inoculation was accomplished by diluting a 24 hr Ps fl culture, four mls per 36 mls of phosphate buffer solution. A Dynatech autoinoculator was used to transfer 1.5 μl of this cell suspension to the microtiter plates. The plates were incubated at 30° C. for 3 days before the lowest concentration at which no growth occurs was recorded in the database. The SOK data and MIC test data on Ps.fl, Ps.ae, E.c, and S.a. bacteria and Candida albicans (C.alb), A.n and A.p fungi are listed in Table 4.

[1] = system: Erysiphe graminis (f. sp. tritici); assay: whole plant or invertebrate; assay type: in vivo; conditions: Blumeria graminis; read-out: % control WPM
Pseudomonas fluorescens = assay: Minimum Inhibitory Concentration Test, alternate (Table 4), Ps.fl; assay type: cell-based; conditions: Pseudomonas fluorescens, TSB, 72 hours, 30° C
Experimental: as §1, §2

Piricularia oryzae = assay: whole plant or invertebrate; assay type: in vivo; conditions: Pyricularia oryzae, read-out: % control RB
[2] = system: Pseudoperonospora cubensis; assay: whole plant or invertebrate; assay type: in vivo; conditions: Pseudoperonospora cubensis, in Cucumis sativus, 168 h; read-out: % control CDM
[3] = system: Pellicularia filamentosa (f. sp. sasiki); assay: whole plant or invertebrate; assay type: in vivo; conditions: 120 h; read-out: % control RSB
[4] = system: Puccinia recondita (f. sp. tritici Races PKB and PLD); assay: whole plant or invertebrate; assay type: in vivo; conditions: Puccinia recondita, 240 h; read-out: % control WLR

Row | Structure (SMILES) | pest or weed control at 100 ppm (Phytophthora infestans) [%] | MIC (A.n) [µg/mL] | pest or weed control at 100 ppm [1] [%] | MIC (Pseudomonas fluorescens) [µg/mL] | pest or weed control at 100 ppm (Piricularia oryzae) [%] | pest or weed control at 100 ppm [2] [%] | pest or weed control at 100 ppm [3] [%] | pest or weed control at 100 ppm [4] [%] | pest or weed control at 200 ppm (Phytophthora infestans) [%] | pest or weed control at 200 ppm [1] [%] | pest or weed control at 200 ppm (Piricularia oryzae) [%] | pest or weed control at 200 ppm [2] [%] | pest or weed control at 200 ppm [3] [%] | pest or weed control at 200 ppm [4] [%]
1 | CCCCCCCCNC(=O)/C=C\SC(C(C)=O)C(=O)Nc1ccccc1C (stereo not drawn) [Example 57, N-n-octyl-cis-3-{2-[N-(2-methylphenyl)acetoacetamido]thio}acrylamide] | 0 | 250 (≈ 618 µM) | 50 | > 500 | 80 | 0 | 100 | 0 |  |  |  |  |  | 
2 | CCCCCCCCNC(=O)/C=C\SC(C(=O)Nc1ccccc1Cl)C(=O)OCC (stereo not drawn) [Example 21, N-n-octyl-cis-3-{2-[ethyl-N-(2-chlorophenyl)malonamido]thio}acrylamide] |  | 8 (≈ 17.6 µM) |  | > 500 |  |  |  |  | 97 | 62 | 100 | 97 | 0 | 75
3 | CCCCCCCCNC(=O)/C=C\SC(C(=O)NCc1ccccc1Cl)C(=O)OCC (stereo not drawn) [Example 38, N-n-octyl-cis-3-{2-[ethyl-N-(2-chlorobenzyl)malonamido]thio}acrylamide] | 95 | 125 to 250 (≈ 266 to 533 µM) | 0 | > 500 | 50 | 99 | 0 | 0 |  |  |  |  |  | 
4 | CCCCCCCCNC(=O)/C=C\SC(C(=O)NC(C)CC)C(=O)OCC (stereo not drawn) [Example 16, N-n-octyl-cis-3-[2-(ethyl-N-(1-methylpropyl)malonamido)thio]acrylamide] |  | > 500 |  | > 500 |  |  |  |  | 47 | 0 | 40 | 42 | 0 | 72
5 | CCCCCCCCNC(=O)/C=C\SC(C(=O)NCCC)C(=O)NCCC [Example 19, N-n-octyl-cis-3-[2-(N,N'-di-n-propylmalonodiamido)thio]acrylamide] |  | > 500 |  | > 500 |  |  |  |  | 89 | 25 | 0 | 95 | 0 | 62
6 | CCCCCCCCNC(=O)/C=C\SC(C(=O)NCc1ccccc1OC)C(=O)OCC (stereo not drawn) [Example 56, N-n-octyl-cis-3-{2-[ethyl-N-(2-methoxybenzyl)malonamido]thio}acrylamide] | 80 | 250 (≈ 538 µM) | 0 | > 500 | 90 | 100 | 0 | 0 |  |  |  |  |  | 
7 | CCCCCCCCNC(=O)/C=C\SC(C(=O)Nc1nccs1)C(=O)OCC (stereo not drawn) [Example 25, N-n-octyl-cis-3-{2-[ethyl-N-(2-thiazoyl)malonamido]thio}acrylamide] |  | > 500 |  | > 500 |  |  |  |  | 80 | 0 | 0 | 100 | 50 | 75
8 | CCCCCCCCNC(=O)/C=C\SC(C(=O)Nc1ccc(OC)cc1)C(=O)OCC (stereo not drawn) [Example 58, N-n-octyl-cis-3-{2-[ethyl-N-(4-methoxyphenyl)malonamido]thio}acrylamide] | 0 | 250 (≈ 555 µM) | 0 | > 500 | 0 | 100 | 0 | 0 |  |  |  |  |  | 
9 | CCCCCCCCNC(=O)/C=C\SC(C(=O)Nc1ncccn1)C(=O)OCC (stereo not drawn) [Example 62, N-n-octyl-cis-3-{2-[ethyl-N-(2-pyrimidinyl)malonamido]thio}acrylamide] | 0 | > 250 | 0 | > 250 | 0 | 85 | 0 | 0 |  |  |  |  |  | 
10 | CCCCCCCCCCNC(=O)C(S/C=C\C(=O)NCCCCCCCC)C(=O)OCC (stereo not drawn) [Example 26, N-n-octyl-cis-3-[2-(ethyl-N-n-decylmalonamido)thio]acrylamide] |  | > 500 |  | > 500 |  |  |  |  | 80 | 50 | 50 | 100 | 0 | 75
11 | CCCCCCCCNC(=O)/C=C\SC(C(=O)NCCCC)C(=O)OCC (stereo not drawn) [Example 13, N-n-octyl-cis-3-[2-(ethyl-N-n-butylmalonamido)thio]acrylamide] |  |  |  |  |  |  |  |  | 80 | 75 | 50 | 99 | 0 | 50
12 | CCCCCCCCNC(=O)/C=C\SC(C(=O)Nc1ccccn1)C(=O)OCC (stereo not drawn) [Example 44, N-n-octyl-cis-3-{2-[ethyl-N-(2-pyridyl)malonamido]thio}acrylamide] | 0 | 250 (≈ 593 µM) | 0 | > 500 | 50 |  | 0 | 75 |  |  |  |  |  | 
13 | CCCCCCCCNC(=O)/C=C\SC(C(=O)Nc1ccc(Cl)cc1C#N)C(=O)OCC (stereo not drawn) [Example 43, N-n-octyl-cis-3-{2-[ethyl-N-(2-cyano-4-chlorophenyl)malonamido]thio}acrylamide] | 80 |  | 50 |  | 100 | 100 | 0 | 75 |  |  |  |  |  | 
14 | CCCCCCCCNC(=O)/C=C\SC(C(=O)NCC(C)C)C(=O)OCC (stereo not drawn) [Example 14, N-n-octyl-cis-3-[2-(ethyl-N-(2-methylpropyl)malonamido)thio]acrylamide] |  |  |  |  |  |  |  |  | 50 | 75 | 0 | 95 | 0 | 50
15 | CCCCCCCCNC(=O)/C=C\SC(C(=O)Nc1cc(Cl)ccc1OC)C(=O)OCC (stereo not drawn) [Example 46, N-n-octyl-cis-3-{2-[ethyl-N-(2-methoxy-5-chlorophenyl)malonamido]thio}acrylamide] | 0 | 250 (≈ 515 µM) | 0 | > 500 | 80 |  | 50 | 50 |  |  |  |  |  | 
16 | CCCCCCCCNC(=O)/C=C\SC(C(=O)NCCCCCC#N)C(=O)OCC (stereo not drawn) [Example 27, N-n-octyl-cis-3-{2-[ethyl-N-(5-cyanopentyl)malonamido]thio}acrylamide] |  | > 500 |  | > 500 |  |  |  |  | 100 | 0 | 98 | 100 | 0 | 
